Reference: patent US8003660B2, “Modulators of muscarinic receptors” (Vertex Pharmaceuticals Incorporated, priority 2006, dated 2011)

Legend:
Type in all cases: cell-based
M3 muscarinic receptor = target: T1, M3 muscarinic receptor (Homo sapiens, UniProt P20309); test: Functional mobilization of intracellular calcium (FLIPR) in CHO cells expressing M3; details: for EC50: CHO cells expressing M3, FLIPR calcium; for Emax: CHO, 100% = maximum response obtained with the Carbachol control, read-out: M3 Efficacy
T1 construct: expressed in transfected cells; host or cells: CHO (M3-CHO)
T1 sequence (P20309 whole entry): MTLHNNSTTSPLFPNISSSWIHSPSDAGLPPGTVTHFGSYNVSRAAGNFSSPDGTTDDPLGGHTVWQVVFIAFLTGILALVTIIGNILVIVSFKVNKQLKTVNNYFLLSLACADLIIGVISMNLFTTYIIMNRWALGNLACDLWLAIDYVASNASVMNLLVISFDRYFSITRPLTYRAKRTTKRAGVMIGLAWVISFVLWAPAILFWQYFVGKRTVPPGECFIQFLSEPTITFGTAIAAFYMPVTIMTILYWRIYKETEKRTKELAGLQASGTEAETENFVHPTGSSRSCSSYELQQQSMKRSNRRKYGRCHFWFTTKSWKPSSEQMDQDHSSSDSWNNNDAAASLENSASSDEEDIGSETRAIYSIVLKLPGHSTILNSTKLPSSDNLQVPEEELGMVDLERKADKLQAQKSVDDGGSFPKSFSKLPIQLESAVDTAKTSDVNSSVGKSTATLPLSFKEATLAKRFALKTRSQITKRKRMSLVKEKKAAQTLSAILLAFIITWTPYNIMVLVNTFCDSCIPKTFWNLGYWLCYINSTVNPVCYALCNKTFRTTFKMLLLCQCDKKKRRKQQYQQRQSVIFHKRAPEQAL
Procedure: (§1) Functional Mobilization of Intracellular Calcium to Determine Muscarinic Receptor Activity:
(§2) CHO cells expressing muscarinic receptors (M1 to M5) are grown as monolayers in tissue culture flasks at 37° C. in a humidified atmosphere containing 5% CO2 and passaged every 3-5 days. The growth media is Dulbecco's modified eagles medium (DMEM, Gibco Cat# 12430-054), containing 25 mM Hepes and supplemented with Fetal Bovine Serum (Hyclone, cat# SH30071.03), 0.1 mM of MEM non-essential amino acids (GIBCO, Cat# 11140-050), 1 mM MEM Sodium Pyruvate (GIBCO Cat# 11360-070) and 100 units/ml of Penicillin G and 100 μg/ml of Streptomycin (GIBCO Cat# 15140-122). The recombinant muscarinic receptor cell lines are grown under antibiotic pressure with media containing 25 μg/ml zeocin and 500 μg/ml G418 (M1-CHO), 4 μg/ml puromycin, 50 μg/ml zeocin and 2.5 μg/ml blasticidin (M2 and M4-CHO) or 50 μg/ml zeocin and 4 μg/ml puromycin (M3 and M5-CHO).
(§3) Cells are harvested at 80-90% confluence using Versene (GIBCO Cat# 15040-066), collected by centrifugation and seeded 18-24 hrs prior to running the calcium assay at a density of 5,000-10,000 cells/well in […], clear-bottomed 384-well plates (BD Biocoat, poly-D-lysine, Cat#356663). The day of the experiment, the cells are washed with a plate washer (Bioteck Instruments, ELX 405) using bath 1 buffer (140 mM NaCl, 4,5 mM KCl, 2 mM CaCl2, 1 mM MgCl2, 10 mM Hepes-Na, 10 mM Glucose, pH 7.4, with NaOH) containing 1 mM Probenecid. Next, the calcium dye Fluo-3 (25 μl/well of Fluo-3 AM at 4 μM, Molecular Probes F-1241, in Bath 1 buffer containing 1 mM Probenecid) is added to the 25 μl of Bath 1 remaining in each well after the plate wash and the dye is loaded at 37° C. in the tissue culture incubator for 60-90 min. The fluorescent dye is removed using the plate washer with Bath 1 containing 1 mM Probenecid, leaving 25 μl/well of this solution after the wash. Alternatively, cells can be loaded with the calcium indicator from Molecular Devices (Calcium 3 Assay Reagents, Cat #R7181) adding 5 μl of a 5× solution dye in Bath 1 containing 1 mM Probenecid (10 ml per dye flask cat#R7182 to generate a solution […]) to 20 μl of the same buffer. After loading for 60 min, the experiment can be run without having to remove the dye.
(§4) Compounds are prepared at a 2× fold concentration in a 96-well plate (round bottom, Costar Corning cat#3656), by reconstituting the pre-spotted compounds in bath 1 containing 1 mM probenecid. The final concentration DMSO is 0.5%, and the amount of DMSO is normalized across the assay plate. To determine an agonist action of the compounds on muscarinic receptors, the reconstituted compounds are added (25 μl compound/well) to the cell assay plate (containing 25 μl/well) using the multi-channel robotic system of the FLIPR 3 Instrument (Molecular Devices, Sunnyvale, Calif.). To determine a functional inhibitory action of the compounds on muscarinic receptors, the reconstituted compounds are added (25 μl compound/well) to the assay plate and pre-incubated for 15 min prior to adding 25 μl of Carbachol at 3× the EC80 for each muscarinic subtype. Alternatively, the compounds can be co-applied simultaneously with the agonist. In both assay modes, the fluorescence is recorded for 60 sec (excitation wavelength is […] and emission wavelength 540 nm) using the FLIPR 3 instrument.
(§5) The potency, efficacy and selectivity of the muscarinic compounds were evaluated by screening the compound activity across the whole family (M1 to M5 cells). Compounds were also screened for activity on other proteins such as other GPCRs and ion channels to determine selectivity on M4 receptors.

M2 muscarinic receptor = target: T2, M2 muscarinic receptor (Homo sapiens, UniProt P08172); test: Functional mobilization of intracellular calcium (FLIPR) in CHO cells expressing M2; details: for EC50: CHO cells expressing M2, FLIPR calcium; for Emax: CHO, 100% = maximum response obtained with the Carbachol control, read-out: M2 Efficacy
T2 construct: expressed in transfected cells; host or cells: CHO (M2-CHO)
T2 sequence (P08172 1-466): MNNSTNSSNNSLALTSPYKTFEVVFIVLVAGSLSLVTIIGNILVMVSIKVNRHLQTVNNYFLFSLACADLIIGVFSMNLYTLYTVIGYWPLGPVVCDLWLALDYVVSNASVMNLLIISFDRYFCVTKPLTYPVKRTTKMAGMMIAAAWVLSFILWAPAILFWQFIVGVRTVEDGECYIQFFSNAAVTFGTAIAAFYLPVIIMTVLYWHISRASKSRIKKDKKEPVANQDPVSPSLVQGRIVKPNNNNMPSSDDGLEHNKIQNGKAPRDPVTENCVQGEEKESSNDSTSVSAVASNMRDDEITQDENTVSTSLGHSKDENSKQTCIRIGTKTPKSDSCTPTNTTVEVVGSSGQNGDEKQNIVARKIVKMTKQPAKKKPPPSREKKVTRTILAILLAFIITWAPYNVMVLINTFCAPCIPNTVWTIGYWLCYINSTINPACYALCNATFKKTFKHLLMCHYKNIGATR
Procedure: as §1, §2, §3, §4, §5

M4 muscarinic receptor = target: T3, M4 muscarinic receptor (Homo sapiens, UniProt P08173); test: Functional mobilization of intracellular calcium (FLIPR) in CHO cells expressing M4; details: for EC50: CHO cells expressing M4, FLIPR calcium; for Emax: CHO, 100% = maximum response obtained with the Carbachol control, read-out: M4 Efficacy
T3 construct: expressed in transfected cells; host or cells: CHO (M4-CHO)
T3 sequence (P08173 1-479): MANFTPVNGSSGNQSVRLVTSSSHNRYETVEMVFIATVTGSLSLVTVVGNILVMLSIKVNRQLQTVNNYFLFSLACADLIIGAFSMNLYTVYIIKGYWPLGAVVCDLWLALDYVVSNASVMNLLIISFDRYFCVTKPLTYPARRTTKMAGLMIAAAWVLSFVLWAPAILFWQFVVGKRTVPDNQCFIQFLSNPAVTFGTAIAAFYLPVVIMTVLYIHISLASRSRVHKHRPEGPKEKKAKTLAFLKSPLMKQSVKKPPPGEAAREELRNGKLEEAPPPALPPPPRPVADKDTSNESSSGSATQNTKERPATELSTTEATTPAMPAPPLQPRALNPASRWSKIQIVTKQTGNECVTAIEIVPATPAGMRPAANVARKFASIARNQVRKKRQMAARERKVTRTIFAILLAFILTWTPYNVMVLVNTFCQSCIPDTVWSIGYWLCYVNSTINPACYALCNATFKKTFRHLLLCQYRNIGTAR
Procedure: as §1, §2, §3, §4, §5

M1 muscarinic receptor = target: T4, M1 muscarinic receptor (Homo sapiens, UniProt P11229); test: Functional mobilization of intracellular calcium (FLIPR) in CHO cells expressing M1; details: for EC50: CHO cells expressing M1, FLIPR calcium; for Emax: CHO, 100% = maximum response obtained with the Carbachol control, read-out: M1 Efficacy
T4 construct: expressed in transfected cells; host or cells: CHO (M1-CHO)
T4 sequence (P11229 1-460): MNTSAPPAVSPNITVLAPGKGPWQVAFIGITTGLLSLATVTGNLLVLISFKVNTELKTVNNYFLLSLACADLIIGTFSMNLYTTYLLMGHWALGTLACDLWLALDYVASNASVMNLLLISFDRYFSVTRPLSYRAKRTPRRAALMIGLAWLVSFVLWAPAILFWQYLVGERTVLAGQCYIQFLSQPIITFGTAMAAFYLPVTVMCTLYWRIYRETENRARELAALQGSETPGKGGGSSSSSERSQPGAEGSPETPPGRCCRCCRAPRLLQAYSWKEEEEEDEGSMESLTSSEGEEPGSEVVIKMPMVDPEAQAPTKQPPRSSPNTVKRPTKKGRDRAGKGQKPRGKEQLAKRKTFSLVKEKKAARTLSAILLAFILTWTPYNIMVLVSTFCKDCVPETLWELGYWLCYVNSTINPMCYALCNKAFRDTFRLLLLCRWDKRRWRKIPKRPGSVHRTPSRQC
Procedure: as §1, §2, §3, §4, §5

SMILES | EC50 (M3 muscarinic receptor) [µM] | Emax (M3 muscarinic receptor) [%] | EC50 (M2 muscarinic receptor) [µM] | Emax (M2 muscarinic receptor) [%] | EC50 (M4 muscarinic receptor) [µM] | Emax (M4 muscarinic receptor) [%] | EC50 (M1 muscarinic receptor) [µM] | Emax (M1 muscarinic receptor) [%]
COC(=O)CCCN1CCC2(CC[C@H](NC(C)=O)c3ccccc32)CC1 [compound 16] | > 5 | < 25 | > 5 | < 25 | > 5 | 25 to 100 | 2 to 5 | 25 to 100
CC(C)(C)CCN1CCC2(CC[C@@H](NC(=O)CC3CCCC3=O)c3ccc(F)cc32)CC1 (some centres unmarked) [compound 17] | > 5 | < 25 | > 5 | < 25 | < 2 | 25 to 100 | < 2 | 25 to 100
CC(=O)CCC(=O)N[C@H]1CCC2(CCN(CCC(C)(C)C)CC2)c2ccccc21 [compound 18] | > 5 | < 25 | < 2 | 25 to 100 | < 2 | 25 to 100 | < 2 | 25 to 100
COC(C)(C)CCCC(C)CCN1CCC2(CC[C@H](NC(=O)N(C)C)c3ccccc32)CC1 (some centres unmarked) [compound 19] | > 5 | < 25 | > 5 | < 25 | > 5 | < 25 | > 5 | < 25
CC(=O)NCCC(=O)N[C@@H]1CCC2(CCN(CCC(C)(C)C)CC2)c2cc(F)ccc21 [compound 20] | > 5 | < 25 | < 2 | 25 to 100 | < 2 | 25 to 100 | < 2 | 25 to 100
CCOCCC(=O)N[C@@H]1CCC2(CCN(CCC(C)(C)C)CC2)c2ccccc21 [compound 21] | > 5 | < 25 | < 2 | 25 to 100 | < 2 | 25 to 100 | < 2 | 25 to 100
C[C@@H](C(=O)N[C@@H]1CCC2(CCN(CCC(C)(C)C)CC2)c2cc(F)ccc21)N1CCCC1=O [compound 22] | > 5 | < 25 | 2 to 5 | < 25 | < 2 | 25 to 100 | 2 to 5 | 25 to 100
